Data set [1] can be described thus: Example 5 Supplemental: turbidity meter (Nephla) of compositions with active agents over time (Table 12a). As to clarity: key: Clear: categorised as being clear if there was no significant visible opacity to the naked eye; Cloudy: categorised as cloudy if there was significant visible disruption to the passage of light. It counts as physicochemical. The following applies: SMA 3000P (hydrolysed) 2.5%, lipid 90H 1%. Here is the method: The turbidity meter was calibrated prior to use, with two known standards (0 and 40 FNU).
After the final stage of sample preparation (i.e. adjustment of the pH to physiological) samples were course filtered through Whatman 541 filter paper to remove any gross matter which could interfere with turbidity measurement. Immediately after filtration the first turbidity measurement was taken. Mixtures were stored at 4° C. following the initial measurement, and remeasured at later time points.

Data set [2] in a line: Example 5: compositions of the invention to solubilise exemplary active agents (visual clarity, pH on clearing, clarity at pH 7). The following applies: SMA 3000HNa 2.5%, 90H 1%, S LPC 0.01%.
Procedure: A stock emulsion of cosurfactant, membrane forming lipid and active was prepared at double the desired final concentration. Cosurfactant was dissolved in water while heating (approximately 50° C.) and stirring. Lipid was then added, followed by continued stirring and heating until a uniform emulsion is formed. The emulsion was then homogenised for 10 minutes. After re-heating to approximately 50° C. the active component was added slowly under stirring until a uniform emulsion was present. The final emulsion was then homogenised for a further 10 minutes.
Stock solutions were prepared by mixing of the hydrolysed polymer with the appropriate volume of water.
Polymer/lipid mixtures were then prepared by the dropwise addition of the lipid containing emulsion to an equal volume of polymer solution while stirring and heating to approximately 50° C.
The pH of the mixtures was adjusted to determine the critical pH level at which macromolecular assemblies formed, and whether the resulting clear and colourless solution would remain at physiological pH.
Percentage values specified in this experiment refer to the weight of the component in question as a proportion of the total weight of the composition.
Mixtures were visually examined to determine whether the polymer/lipid assemblies had solubilised the active agent in the aqueous medium. The clarity of a mixture was categorised as being clear if there was no significant visible opacity to the naked eye, whereas a mixture was categorised as cloudy if there was significant visible disruption to the passage of light.
The mark [3] stands for this setting: S LPC 0.01%, active agent 0.25%.
Where [4] appears, read: S LPC 0.01%, active agent 0.15%.
The mark [5] stands for this setting: SL 30-3 0.05% (S LPC content 0.01%), active agent 0.80%.

Where a SMILES comes first, the peptide text is derived from it. The star is where a group is joined. Palmitoyl = CCCCCCCCCCCCCCCC(=O)*

Regarding Ceramide IIIB [Cera. IIIB], in data set [1] (S LPC 0.01%, active agent 0.1%), the Clarity result was “Clear”, the pH on clearing came out at 8.98 and the “Turbidity at pH 7 (FNU)” value came to 120.7 FNU.
As for `CC(=O)N1CCN(c2ccc(OCC3COC(Cn4ccnc4)(c4ccc(Cl)cc4Cl)O3)cc2)CC1` (stereo not drawn) [Keta., Ketaconazole, reference compound], in data set [1] (S LPC 0.01%, active agent 0.1%), the Clarity result was “Clear”, the pH on clearing is reported as 8.63 and the “Turbidity at pH 7 (FNU)” value was found to be 40.75 FNU. In addition, in data set [1] (S LPC 0.01%, active agent 0.4%), the Clarity entry is on record as “Clear”, the pH on clearing amounted to 8.83 and the “Turbidity at pH 7 (FNU)” value is reported as 74.5 FNU.
On to `CC1=C(/C=C/C(C)=C/C=C/C(C)=C/C=C/C=C(C)/C=C/C=C(C)/C=C/C2=C(C)CCCC2(C)C)C(C)(C)CCC1` [β-Car, β-carotene], for which, in data set [2] (active agent 0.1%), the Clarity result is recorded as “Clear”, the “Clarity at pH 7” value is “Clear” and the pH on clearing was determined as 8.83. Further, in data set [2] (active agent 0.25%), the Clarity result is recorded as “Clear”, the “Clarity at pH 7” value is listed as “Clear” and the pH on clearing stood at 8.83.
In the case of `COc1ccc(C(=O)c2ccccc2)c(O)c1` [Eusolex 4360, Benzophenone-3], in data set [1] (S LPC 0.01%, active agent 0.1%), the Clarity result is “Clear”, the pH on clearing is on record as 8.96 and the “Turbidity at pH 7 (FNU)” value was found to be 31.00 FNU.
As for acetyl hexapeptide 3 [Argir], the “Clarity at pH 7” value in data set [2] (active agent 0.3%) was “Clear”.
Take `CC(=O)OCC(=O)[C@@]1(O)[C@H](C)C[C@H]2[C@@H]3CCC4=CC(=O)C=C[C@]4(C)[C@@]3(F)[C@@H](O)C[C@@]21C` [DEX A.A., Dexamethasone Acetate Anhydrous, reference compound]: in data set [1] (setting [3]), the Clarity result is given as “Clear”, the pH on clearing is 8.84 and the “Turbidity at pH 7 (FNU)” value is recorded as 10.52 FNU.
`C[C@]12CCC(=O)C=C1CC[C@@H]1[C@@H]2[C@@H](O)C[C@@]2(C)[C@H]1CC[C@]2(O)C(=O)CO` [HC, Hydrocortisone, reference compound]: in data set [1] (setting [3]), the Clarity entry is given as “Clear”, the pH on clearing was determined as 8.97 and the “Turbidity at pH 7 (FNU)” value is 9.09 FNU.
As for `CC(C)CCC[C@@H](C)[C@H]1CC[C@H]2[C@@H]3CC=C4C[C@@H](OS(=O)(=O)O)CC[C@]4(C)[C@H]3CC[C@]12C` [Chol Sulphate], in data set [1] (S LPC 0.01%, active agent 0.1%), the Clarity result is given as “Clear”, the pH on clearing was 8.81 and the “Turbidity at pH 7 (FNU)” value stood at 17.81 FNU.
Regarding `C[C@@H]1[C@H](O)[C@@H](C)/C=C/C=C/CC/C=C/C=C/C=C/C=C/C(O[C@H]2O[C@H](C)[C@@H](O)[C@H](N)[C@@H]2O)CC2O[C@](O)(CC(O)C(O)CCC(O)CC(O)CC(O)CC(=O)O[C@H]1C)CC(O)C2C(=O)O` (stereo partly drawn) [Nystatin, reference compound], in data set [1] (S LPC 0.01%, active agent 0.1%), the Clarity result was “Clear”, the pH on clearing turned out to be 8.85 and the “Turbidity at pH 7 (FNU)” value came to 6.93 FNU.
For the compound `CCCCC(CC)COC(=O)C=Cc1ccc(OC)cc1` (stereo not drawn) [Eusolex 2292, Octyl methoxycinimate], in data set [1] (S LPC 0.01%, active agent 0.1%), the Clarity result is given as “Clear”, the pH on clearing stood at 8.81 and the “Turbidity at pH 7 (FNU)” value amounted to 24.50 FNU.
For the compound `CCCCCCCCCCCCCCCC(=O)OC[C@H](O)[C@H]1OC(=O)C(OC(=O)CCCCCCCCCCCCCCC)=C1O` [CP], in data set [2] (active agent 0.1%), the Clarity result is listed as “Clear”, the “Clarity at pH 7” value is reported as “Clear” and the pH on clearing is 8.89.
As to `CC(Cc1ccc(O)c(O)c1)C(C)Cc1ccc(O)c(O)c1` (stereo not drawn) [NDGA, Nordihydroguaiaretic acid], in data set [1] (S LPC 0.01%, active agent 0.1%), the Clarity entry was “Clear”, the pH on clearing is 8.98 and the “Turbidity at pH 7 (FNU)” value is listed as 27.7 FNU.
Turning to `CC(=O)OCC(=O)[C@@]1(O)CC[C@H]2[C@@H]3CCC4=CC(=O)CC[C@]4(C)[C@H]3C(=O)C[C@@]21C` [Cort. A., Cortisone Acetate, reference compound], in data set [1] (setting [3]), the Clarity entry was “Clear”, the pH on clearing amounted to 8.87 and the “Turbidity at pH 7 (FNU)” value was 14.28 FNU.
Turning to `CCCCCCCCCCCCCCCC(=O)OC/C=C(C)/C=C/C=C(C)/C=C/C1=C(C)CCCC1(C)C` [Ret-P, Retinol palmitate], in data set [2] (active agent 0.25%), the Clarity entry is “Clear”, the “Clarity at pH 7” value is listed as “Clear” and the pH on clearing amounted to 8.95.
For the compound `Clc1ccccc1C(c1ccccc1)(c1ccccc1)n1ccnc1` [Clot., Clotrimazole, reference compound], in data set [1] (S LPC 0.01%, active agent 0.1%), the Clarity entry is “Clear”, the pH on clearing was found to be 8.78 and the “Turbidity at pH 7 (FNU)” value turned out to be 5.91 FNU.
For the compound `NC[C@@H]1O[C@H](O[C@H]2[C@@H](O)[C@H](O[C@@H]3[C@@H](O)[C@H](N)C[C@H](N)[C@H]3O[C@H]3O[C@H](CN)[C@@H](O)[C@H](O)[C@H]3N)O[C@@H]2CO)[C@H](N)[C@@H](O)[C@@H]1O.O=S(=O)(O)O` [Neo. Sulphate, Neomycin Sulphate, reference compound], in data set [1] (S LPC 0.01%, active agent 0.1%), the Clarity result was “Clear”, the pH on clearing came out at 8.82 and the “Turbidity at pH 7 (FNU)” value is recorded as 42.80 FNU.
For “Erythromycin Sulphate [Erythro., reference compound]”, in data set [1] (S LPC 0.01%, active agent 0.1%), the Clarity result is on record as “Clear”, the pH on clearing was found to be 8.86 and the “Turbidity at pH 7 (FNU)” value was determined as 18.20 FNU.
`CCCC(=O)O[C@]1(C(=O)CCl)[C@H](C)C[C@@H]2[C@@H]3CCC4=CC(=O)C=C[C@]4(C)[C@]3(F)C(=O)C[C@@]21C` [Clo. But]: in data set [1] (S LPC 0.01%, active agent 0.1%), the Clarity result is recorded as “Clear”, the pH on clearing turned out to be 8.94 and the “Turbidity at pH 7 (FNU)” value stood at 63.0 FNU.
With `CCCC(=O)O[C@]1(C(=O)CO)CC[C@H]2[C@@H]3CCC4=CC(=O)CC[C@]4(C)[C@H]3[C@@H](O)C[C@@]21C` [HC But], in data set [1] (S LPC 0.01%, active agent 0.1%), the Clarity entry is on record as “Clear”, the pH on clearing was determined as 8.86 and the “Turbidity at pH 7 (FNU)” value is on record as 33.1 FNU.
In the case of `CCCCCCCCCCCCCCCC(=O)N[C@@H](CCCCN)C(=O)N[C@H](C(=O)N[C@H](C(=O)N[C@@H](CCCCN)C(=O)N[C@@H](CO)C(=O)O)[C@@H](C)O)[C@@H](C)O` [Mat, palmityl-KTTKS] (Palmitoyl-KTTKS-OH; C-terminus assumed), in data set [2] (active agent 0.5%), the Clarity entry was “Clear”, the “Clarity at pH 7” value is listed as “Clear” and the pH on clearing amounted to 8.86.
For the compound `COc1ccc(C(=O)CC(=O)c2ccc(C(C)(C)C)cc2)cc1` [Avobenzene], in data set [1] (S LPC 0.01%, active agent 0.1%), the Clarity entry is reported as “Clear”, the pH on clearing is listed as 8.88 and the “Turbidity at pH 7 (FNU)” value stood at 62.0 FNU.
In the same order, the values of `CC(C)CCC[C@@H](C)[C@H]1CC[C@H]2C3=CC=C4C[C@@H](O)CC[C@]4(C)[C@H]3CC[C@]12C` [7-DHC, 7-Dehydrocholesterol] are “Clear”, 8.91 and 7.28 FNU.
Take `CC(C)CCC[C@@H](C)[C@H]1CC[C@H]2[C@@H]3CC=C4C[C@@H](O)CC[C@]4(C)[C@H]3CC[C@]12C` [Chol, Cholesterol]: in data set [2] (active agent 0.1%), the Clarity result is “Clear”, the “Clarity at pH 7” value is “Clear” and the pH on clearing was determined as 8.95.
Consider `CCC(=O)O[C@]1(C(=O)CCl)[C@@H](C)C[C@H]2[C@@H]3CCC4=CC(=O)C=C[C@]4(C)[C@@]3(F)[C@@H](O)C[C@@]21C` [Clo. P, Clobetasol Propionate, reference compound], for which, in data set [1] (S LPC 0.01%, active agent 0.1%), the Clarity entry was “Clear”, the pH on clearing is recorded as 8.85 and the “Turbidity at pH 7 (FNU)” value was 50 FNU.
For `Nc1ccc(C(=O)O)cc1` [PABA, 4-Aminobenzoic acid], in data set [1] (S LPC 0.01%, active agent 0.1%), the Clarity result is given as “Clear”, the pH on clearing was 8.89 and the “Turbidity at pH 7 (FNU)” value worked out at 23.20 FNU.
With `C=C1CC[C@H](O)C/C1=C/C=C1\CCC[C@]2(C)[C@@H]([C@H](C)CCCC(C)C)CC[C@@H]12` [Vitamin D3, Cholecalciferol, reference compound], in data set [1] (setting [3]), the Clarity result was “Clear”, the pH on clearing is reported as 8.59 and the “Turbidity at pH 7 (FNU)” value is reported as 19.78 FNU.
For `CC12CCC(C(=Cc3ccccc3)C1=O)C2(C)C` (stereo not drawn) [Unisol S-22, 3-Benzylidene camphor], in data set [1] (setting [4]), the Clarity entry was “Clear”, the pH on clearing came to 8.94 and the “Turbidity at pH 7 (FNU)” value was found to be 9.46 FNU.
For `CC(=O)OCC(=O)[C@@]1(O)CC[C@H]2[C@@H]3CCC4=CC(=O)CC[C@]4(C)[C@H]3[C@@H](O)C[C@@]21C` [HC A, Hydrocortisone Acetate, reference compound], in data set [1] (setting [3]), the Clarity result is given as “Clear”, the pH on clearing is 8.92 and the “Turbidity at pH 7 (FNU)” value stood at 39.6 FNU.
As for `Cc1cc(CC(C)CC(C)(C)C)n(O)c(=O)c1.NCCO` (stereo not drawn) [Octopirox, Piroctone olamine], in data set [1] (setting [5]), the Clarity result is reported as “Clear” and the “Turbidity at pH 7 (FNU)” value is 3.52 FNU.
With `CC(C)[C@@H]1CC[C@@H](C)C[C@H]1OC(=O)C1CCC(=O)N1` (stereo partly drawn) [Questice], in data set [1] (setting [3]), the Clarity entry was “Clear”, the pH on clearing stood at 8.84 and the “Turbidity at pH 7 (FNU)” value is on record as 28.9 FNU.

The values are drawn from US8623414B2, “Compositions comprising a lipid and copolymer of styrene and maleic acid” (Malvren Cosmeceutics Limited, priority 2005, dated 2014).
